The source of these data is US20250179024A1, “AMYLOID AND ASSOCIATED PATHOLOGY MODULATORS AND METHODS THEREOF” (Jawaharlal Nehru Centre for Advanced Scientific Research, priority 2022, published 2025).

The test addresses T1, Aβ oligomers (Homo sapiens, UniProt P05067).
T1 construct: is a 42 amino acid proteolytic product from the amyloid precursor protein; purchased Invitrogen
As to the kind of experiment: Dot blot assay of Aβ oligomer inhibition (A11 antibody). The settings on record: Aβ 10 μM, NMIs 20 μM, 4° C., 24 h. The format is biochemical. On the procedure: Aggregation modulation by toxic Aβ aggregates were assessed and were quantified by dot blot assay. Aβ peptide (10 μM) was dissolved in phosphate buffered saline (PBS, 10 mM, pH 7.4), incubated alone and with NMIs (20 μM) at 37° C. for 48 h. For concentration dependent inhibition, 10 μM Aβ peptide was incubated with 1, 2, 5, 10 and 20 μM of NMIs and incubated. Samples for oligomer inhibition studies were prepared by incubating Aβ alone and with NMIs at 4° C. for 24 and subjected to dot blot analysis. For dissolution studies, Aβ peptide alone was incubated in PBS for 48 h to prepare fibrils and then incubated with NMIs further for 48 h. For dot blot experiment, 5 μL of sample was blotted on activated PVDF (polyvinylidene fluoride) membrane in triplicates and air dried. The membrane was blocked with skimmed milk powder for 1 h at room temperature. The blot paper was washed with tris-buffered saline with 0.01% Tween 20 (TBST) three times for 5 min. Blot paper was treated with fibril specific OC primary antibody (Rabbit, 1:1000 dilution) overnight at 4° C. For oligomers blot A11 anti-oligomer antibody (Rabbit 1:1000) was used. […] Blots were analyzed and quantified by ImageJ software. […] The ability of NMIs (M3) to inhibit the formation of Aβ oligomers was assessed by dot blot assay. […]

T1 sequence (P05067 672-713 limits assumed): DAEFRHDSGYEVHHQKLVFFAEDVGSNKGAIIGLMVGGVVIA

On to `CN(C)c1ccc2c3c(cccc13)C(=O)N(CCc1ccc(O)c(O)c1)C2=O` [M1, 2-(3,4-dihydroxyphenethyl)-6-(dimethylamino)-1H-benzo[de]isoquinoline-1,3(2H)-dione], for which the oligomer inhibition was 33%.
